# Species: Rattus norvegicus
# Experiment: Open TG-GATES - Regimen: Single
# Type: toxicity, organism-based, Sprague-Dawley
# Design: regimen Single, gender Male, age 6 weeks
# Details: in vivo, po, 0 mg/kg, route gavage, dose level Control; for APTT / Bas / Eos / Fbg / Hb / Ht / Lym / MCH / MCHC / MCV / Mono / Neu / PT / Plat / RBC / Ret / WBC: tissue Blood; for KIDNEY_L / KIDNEY_R / KIDNEY_TOTAL: tissue Kidney; for LIVER: tissue Liver; for A/G / ALP / ALT / AST / BUN / CRE / Ca / Cl / DBIL / GLC / IP / K / LDH / Na / PL / RALB / TBIL / TC / TG / TP / gamma-GTP: tissue Plasma
compound,measurement,setting,value
CN1C(=O)CCS(=O)(=O)C1c1ccc(Cl)cc1 (configuration not stated) [CHLORMEZANONE],TERMINAL_BW,3 h,226.1 g
same,APTT,3 h,17 s
same,Bas,3 h,0%
same,Eos,3 h,0.8%
same,Fbg,3 h,315.6 mg/dL
same,Hb,3 h,13.7 g/dL
same,Ht,3 h,40.3%
same,Lym,3 h,80.4%
same,MCH,3 h,21.7 pg
same,MCHC,3 h,33.9%
same,MCV,3 h,64.1 fL
same,Mono,3 h,3%
same,Neu,3 h,15%
same,PT,3 h,13.1 s
same,Plat,3 h,122.7 x10_4/uL
same,RBC,3 h,629.8 x10_4/ul
same,Ret,3 h,7.8%
same,WBC,3 h,78.6 x10_2/uL
same,KIDNEY_L,3 h,1 g
same,KIDNEY_R,3 h,1 g
same,KIDNEY_TOTAL,3 h,2 g
same,LIVER,3 h,10.3 g
same,A/G,3 h,0.9
same,ALP,3 h,1820.8 IU/L
same,ALT,3 h,43.6 IU/L
same,AST,3 h,67.4 IU/L
same,BUN,3 h,10.2 mg/dL
same,CRE,3 h,0.1 mg/dL
same,Ca,3 h,11.5 mg/dL
same,Cl,3 h,106.2 meq/L
same,DBIL,3 h,0.036 mg/dL
same,GLC,3 h,182.2 mg/dL
same,IP,3 h,9.5 mg/dL
same,K,3 h,4.2 meq/L
same,LDH,3 h,58.2 IU/L
same,Na,3 h,140.2 meq/L
same,PL,3 h,145.2 mg/dL
same,RALB,3 h,2.7 g/dL
same,TBIL,3 h,0.044 mg/dL
same,TC,3 h,73.8 mg/dL
same,TG,3 h,108.2 mg/dL
same,TP,3 h,5.7 g/dL
same,gamma-GTP,3 h,1 IU/L
same,TERMINAL_BW,6 h,224.1 g
same,APTT,6 h,15.7 s
same,Bas,6 h,0%
same,Eos,6 h,1%
same,Fbg,6 h,310.2 mg/dL
same,Hb,6 h,13.7 g/dL
same,Ht,6 h,40.5%
same,Lym,6 h,75%
same,MCH,6 h,21.9 pg
same,MCHC,6 h,33.8%
same,MCV,6 h,65 fL
same,Mono,6 h,3.4%
same,Neu,6 h,19.8%
same,PT,6 h,13.2 s
same,Plat,6 h,113.5 x10_4/uL
same,RBC,6 h,622.8 x10_4/ul
same,Ret,6 h,7.8%
same,WBC,6 h,97 x10_2/uL
same,KIDNEY_L,6 h,0.9 g
same,KIDNEY_R,6 h,0.9 g
same,KIDNEY_TOTAL,6 h,1.8 g
same,LIVER,6 h,9.3 g
same,A/G,6 h,0.9
same,ALP,6 h,1407 IU/L
same,ALT,6 h,40.8 IU/L
same,AST,6 h,78 IU/L
same,BUN,6 h,10.4 mg/dL
same,CRE,6 h,0.2 mg/dL
same,Ca,6 h,11.6 mg/dL
same,Cl,6 h,107 meq/L
same,DBIL,6 h,0.02 mg/dL
same,GLC,6 h,180.2 mg/dL
same,IP,6 h,9.8 mg/dL
same,K,6 h,4.3 meq/L
same,LDH,6 h,57.8 IU/L
same,Na,6 h,141.8 meq/L
same,PL,6 h,145.6 mg/dL
same,RALB,6 h,2.7 g/dL
same,TBIL,6 h,0.04 mg/dL
same,TC,6 h,85.2 mg/dL
same,TG,6 h,54.4 mg/dL
same,TP,6 h,5.7 g/dL
same,gamma-GTP,6 h,1.4 IU/L
same,TERMINAL_BW,9 h,227.6 g
same,APTT,9 h,15.1 s
same,Bas,9 h,0%
same,Eos,9 h,1%
same,Fbg,9 h,331.4 mg/dL
same,Hb,9 h,13.4 g/dL
same,Ht,9 h,39.9%
same,Lym,9 h,74.4%
same,MCH,9 h,21.2 pg
same,MCHC,9 h,33.5%
same,MCV,9 h,63.1 fL
same,Mono,9 h,3.4%
same,Neu,9 h,20.6%
same,PT,9 h,13.2 s
same,Plat,9 h,116.8 x10_4/uL
same,RBC,9 h,631.4 x10_4/ul
same,Ret,9 h,7.5%
same,WBC,9 h,79.8 x10_2/uL
same,KIDNEY_L,9 h,0.9 g
same,KIDNEY_R,9 h,0.9 g
same,KIDNEY_TOTAL,9 h,1.8 g
same,LIVER,9 h,8.6 g
same,A/G,9 h,0.9
same,ALP,9 h,1793 IU/L
same,ALT,9 h,38.6 IU/L
same,AST,9 h,67.8 IU/L
same,BUN,9 h,10.8 mg/dL
same,CRE,9 h,0.2 mg/dL
same,Ca,9 h,11.1 mg/dL
same,Cl,9 h,105 meq/L
same,DBIL,9 h,0.022 mg/dL
same,GLC,9 h,192.6 mg/dL
same,IP,9 h,11.3 mg/dL
same,K,9 h,3.8 meq/L
same,LDH,9 h,51.4 IU/L
same,Na,9 h,143 meq/L
same,PL,9 h,132 mg/dL
same,RALB,9 h,2.6 g/dL
same,TBIL,9 h,0.044 mg/dL
same,TC,9 h,74.8 mg/dL
same,TG,9 h,52.6 mg/dL
same,TP,9 h,5.5 g/dL
same,gamma-GTP,9 h,1 IU/L
same,TERMINAL_BW,24 h,235.8 g
same,APTT,24 h,17.4 s
same,Bas,24 h,0.2%
same,Eos,24 h,0.8%
same,Fbg,24 h,283.8 mg/dL
same,Hb,24 h,13.4 g/dL
same,Ht,24 h,39.1%
same,Lym,24 h,78.8%
same,MCH,24 h,21.6 pg
same,MCHC,24 h,34.4%
same,MCV,24 h,62.9 fL
same,Mono,24 h,2.8%
same,Neu,24 h,17%
same,PT,24 h,13 s
same,Plat,24 h,115.7 x10_4/uL
same,RBC,24 h,621 x10_4/ul
same,Ret,24 h,7.2%
same,WBC,24 h,77.6 x10_2/uL
same,KIDNEY_L,24 h,1 g
same,KIDNEY_R,24 h,1 g
same,KIDNEY_TOTAL,24 h,2 g
same,LIVER,24 h,10.6 g
same,A/G,24 h,0.9
same,ALP,24 h,1848.2 IU/L
same,ALT,24 h,51.8 IU/L
same,AST,24 h,87 IU/L
same,BUN,24 h,16.4 mg/dL
same,CRE,24 h,0.2 mg/dL
same,Ca,24 h,11.5 mg/dL
same,Cl,24 h,105.2 meq/L
same,DBIL,24 h,0.022 mg/dL
same,GLC,24 h,193.4 mg/dL
same,IP,24 h,8.1 mg/dL
same,K,24 h,4.3 meq/L
same,LDH,24 h,69.4 IU/L
same,Na,24 h,142 meq/L
same,PL,24 h,141.6 mg/dL
same,RALB,24 h,2.7 g/dL
same,TBIL,24 h,0.028 mg/dL
same,TC,24 h,77.4 mg/dL
same,TG,24 h,91.8 mg/dL
same,TP,24 h,5.7 g/dL
same,gamma-GTP,24 h,1 IU/L

# — ChEMBL document CHEMBL3885861, “Open TG-GATES”
